Entries after “also recorded” stand apart in the source; their conditions may differ.
Key:
[1] = target: T1, EGFR kinase domain (residues 672–998) (Homo sapiens, UniProt P00533); test: Microscale thermophoresis (MST) binding to EGFRkin; details: direct binding, MST / BLI
T1 construct: baculovirus insect cell expression system (residues 672–998 with N-terminal His-tag followed by TEV cleavage site); made in house; host or cells: Sf9 insect cells (Bac-to-Bac baculovirus, pFastBacHT)
Method: Briefly pFastBacHT plasmid containing the cDNA of EGFR kinase domain with N-terminal His-tag was transformed into DH10Bac E. coli to generate bacmid DNA. P1 virus was generated by transfecting 2.0 mL of sf9 cells at 1.0 million cells/ml density with the purified bacmid DNA (200–3000 ng/μL). The P1 virus was harvested after 5–7 days following transfection. The P1 virus was diluted 100-fold into an sf9 cell culture at a density of 2.0 million cells/ml and cultured for 3 days. Supernatant containing the P2 virus was collected by centrifugation and diluted 40-fold into 1.0 L of sf9 cells at a density of 2.0 million cells/ml. After 2.5–3 days, cell pellets were harvested by centrifugation at 3500 x g at 4 °C for 20 min, and flash frozen in liquid nitrogen prior to storage at −80 °C.
To purify the EGFR kinase domain, Sf9 cell pellets (~10 g) was thawed on ice and homogenized with 2 passages on an EmulsiFlex-C5 (Avestin) in 50 mL of lysis buffer (50 mM Tris pH 7.5, 600 mM NaCl, 1 mM EDTA, 1 mM TCEP, protease inhibitors, DNAase, and 10% Glycerol). The lysate was centrifugated and supernatant was collected and loaded onto a 1.0 mL HisTrap FF column (GE) at a flow rate of 1.0 ml/min. Following loading, the column was washed with 20 column volumes of wash buffer (50 mM Tris pH 7.5, 600 mM NaCl, 20 mM Imidazole, 1 mM TCEP, and 10% Glycerol) and eluted with a linear gradient of elution buffers containing 20 and 300 mM imidazole. Fractions containing the EGFR kinase domain proteins were combined and concentrated to less than 1.0 mL. The concentrated proteins were loaded onto a Superdex 200 10/300 GL column (GE) equilibrated in buffer (20 mM Tris pH 7.5, 100 mM NaCl) for further purification. The purified proteins were concentrated, flash frozen in liquid nitrogen, and stored at −80 °C.
MST experiments were carried out using a Monolith NT.115 pico instrument (NanoTemper Technologies, Munich Germany). […] Kd values were derived from the concentration-dependent changes in normalized fluorescence (Fnorm). Data were analyzed using NanoTemper MO. […]

[2] = tested on: T47D cells; test: MTT cell viability, T47D; type: cell-based; details: 3 days, ER+ breast cancer line
Method: (§1) 2 × 10^3 cells were plated per well in a 96 well plate and left to adhere overnight. The following day, drug treatments were started and continued for 3 days. To measure the viability of the remaining cell population, 10% 3-(4,5-dimethylthiazol-2-yl)-2,5-diphenyltetrazolium (MTT) in media was added and incubated for 2 hours and conversion of MTT to formazan at 540 nm using a biotech Synergy LX plate reader.
(§2) A–G Cells were plated in a 96-well plate at 2000 cells per well. […] Cell viability was then measured with an MTT assay, viability of treated cells were compared with the vehicle control. H MDA-MB-468 cells were plated and incubated+/− IPTG for 2 days prior to drug treatment to induce expression of an EGFR-targeted shRNA.

[3] = Potential toxicity in C57Bl/6 J female mice; type: in vivo, mouse; details: 5.0 or 10.0 μg/g body weight IV 3X/week, 2 weeks, cSNX1.3 vs cPTD4; data not shown
[4] = tested on: mammary tumors of WAP-TGFα transgenic mice; test: Tumor growth in WAP-TGFα transgenic mice; type: in vivo, mouse
Method: Statistics for the animal model was performed by the University of Arizona Cancer Center Biostatistics and Bioinformatics Shared Resources (BBSR). The cube root of the observed tumor burden was applied to normalize the raw values. […] For all cell culture experiments error bars represent the standard error of the mean across 3 experimental replicates.
(§3) The transgenic mouse line WAP-TGFα (The Jackson Laboratory; Tg(WapTgfa)215Bri) were back crossed to C57BL/6 J background (N8). WAP-TGFα heterozygous males were bred with C57BL/6 J females to generate study animals and offspring were genotyped using primers against the WAP-TGFα transgene. WAP-TGFα heterozygous females were housed continuously with C57Bl/6 J males to induce pregnancy, resulting in transgene expression. […] To ensure randomized treatment arms we added mice to alternating treatment arms as they developed tumors, starting with the control cPTD4 arm. When a second mouse from the same litter developed a tumor, that animal was added to the opposite arm from its litter mate. The researchers were not blinded to the treatment arms. […] Once entered, mice were weighed, tumors measured, and injections given intravenously at 10 μg/g body weight 3x/week for 4 weeks. […] Upon sacrifice, all tumors were collected and fixed in 10% formalin; a portion of each tumor was homogenized in tissue lysis buffer to form tissue protein lysates. Tissues were paraffin-embedded and sectioned by the Tissue Acquisition and Cell Molecular Analysis Shared Resource at the University of Arizona Cancer Center. The University of Arizona IACUC committee performs oversite of animal experimental protocols with coordination from a veterinarian in compliance with AAALAC.
When tumors reached >100 mm^3, IV injections began at 3X/week, 10 μg/g body weight and tumors were measured 3X/week with calipers. Animals were injected for 4 weeks or until they reached maximal tumor burden, defined as a total tumor volume >2000 mm^3 or an individual tumor measuring >2 cm in diameter. […] The WAP-TGFα is a spontaneous model in which each tumor arises and progresses in a heterogeneous fashion. […] In this study, mice were sacrificed after 4 weeks of injections or once they reached tumor burden, represented by the Kaplin-Meyer graph (Fig. 2B).
(§4) Mice were bred continuously to induce transgene expression and palpated weekly for tumor formation. […] A Changes in tumor size from entry into study until end of study are shown for each individual tumor, (*) indicate tumors that entered the study at size greater than 500 mm^3, all other tumors entered the study at ~100 mm^3. B a Kaplan-Meier survival curve was generated showing when mice were sacrificed by either reaching tumor burden (2000 mm^3) or the end of the study (p = 0.0002). C Upon sacrifice tumors were harvested and fixed in 10% formalin and embedded in paraffin. FFPE blocks were sectioned at […] and stained with hematoxylin and eosin and imaged at 20x. D Protein lysates were generated from tumors upon the sacrifice and probed for the indicated proteins.

[5] = tested on: PARP; test: PARP cleavage in tumor lysates (immunoblot); type: in vivo, mouse; details: tumor lysates at sacrifice; 10 μg/g IV 3X/week; vs cPTD4
Method: Lysates were prepared as described, protein concentrations determined by BCA assay (Pierce) and resolved via standard SDS-PAGE [18]. Gels were transferred to either PVDF (Immobilon P or Immobilon FL) membrane and probed with the indicated antibodies and analyzed by either HRP-linked secondaries (Pierce) or IRDye secondaries (Li-Cor), followed by development in Dura Signal (Pierce) or IR (Licor).
The transgenic mouse line WAP-TGFα (The Jackson Laboratory; Tg(WapTgfa)215Bri) were back crossed to C57BL/6 J background (N8). WAP-TGFα heterozygous males were bred with C57BL/6 J females to generate study animals and offspring were genotyped using primers against the WAP-TGFα transgene. WAP-TGFα heterozygous females were housed continuously with C57Bl/6 J males to induce pregnancy, resulting in transgene expression. […] To ensure randomized treatment arms we added mice to alternating treatment arms as they developed tumors, starting with the control cPTD4 arm. When a second mouse from the same litter developed a tumor, that animal was added to the opposite arm from its litter mate. The researchers were not blinded to the treatment arms. […] Once entered, mice were weighed, tumors measured, and injections given intravenously at 10 μg/g body weight 3x/week for 4 weeks. […]

[6] = tested on: BT20 cells; type: cell-based; details: 3 days, MTT
Method: as §1, §2
Supplementary Figure 1. A. BT20 triple negative breast cancer cells were treated with SNX1.1, 1.2, or 1.3 for 3 days and their viability was measured via MTT analysis. B. CHO cells were treated with PTD4 or SNX1.3 for 3 days and their viability was measured via MTT analysis.

[7] = Body weight and toxicity in WAP-TGFα mice; type: in vivo; details: 10 μg/g IV 3X/week, up to 4 weeks
Text: as §3, with “The University of Arizona IACUC committee performs oversite of animal experimental protocols with coordination from a veterinarian in compliance with AAALAC.” left out
When tumors reached >100 mm^3, IV injections began at 3X/week, 10 μg/g body weight and tumors were measured 3X/week with calipers. […]
Supplementary Figure 2. […] B. Tumors were measured with calipers 3X/week. […]

[8] = tested on: mammary fat pad and tumors of WAP-TGFα mice; test: Histopathology (H+E) of WAP-TGFα mouse tissues; type: in vivo; details: for Tumor pathology: tumor site in value
Text: as §3, §4
Supplementary Figure 3. Upon sacrifice, tissues were harvested and fixed in 10% formalin. Tissues were embedded, sectioned, and stained with H+E by the Tissue Acquisition and Cell Molecular Analysis Shared Resource (TACMASR) at the University of Arizona Cancer Center. H+E slides were then sent to the UC Davis pathology lab for pathological analysis.

[9] = tested on: MDA-MB-231 cells; test: MTT cell viability, MDA-MB-231; type: cell-based; details: 3 days
Method: as §1, §2

T1 sequence (P00533 696-1022): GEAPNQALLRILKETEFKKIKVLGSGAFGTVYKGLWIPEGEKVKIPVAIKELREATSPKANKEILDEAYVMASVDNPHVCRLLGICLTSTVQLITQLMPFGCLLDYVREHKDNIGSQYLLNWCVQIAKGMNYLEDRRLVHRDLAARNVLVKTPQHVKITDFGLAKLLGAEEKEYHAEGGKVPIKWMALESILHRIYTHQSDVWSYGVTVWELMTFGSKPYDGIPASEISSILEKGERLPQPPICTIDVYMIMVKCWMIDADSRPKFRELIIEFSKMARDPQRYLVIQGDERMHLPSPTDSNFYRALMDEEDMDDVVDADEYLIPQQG

CC[C@H](C)[C@H](NC(=O)[C@@H](NC(=O)[C@H](Cc1c[nH]cn1)NC(=O)[C@H](CC(N)=O)NC(=O)[C@H](CCCCN)NC(=O)[C@H](C)NC(=O)[C@H](CCCNC(=N)N)NC(=O)[C@H](C)NC(=O)[C@H](CCC(N)=O)NC(=O)[C@H](CCCNC(=N)N)NC(=O)[C@H](C)NC(=O)[C@H](C)NC(=O)[C@H](C)NC(=O)[C@H](CCCNC(=N)N)NC(=O)[C@H](C)NC(=O)[C@H](Cc1ccc(O)cc1)NC(C)=O)C(C)C)C(=O)N[C@@H](CCCCN)C(=O)N[C@@H](Cc1ccc(O)cc1)C(=O)N[C@@H](CC(C)C)C(=O)N[C@@H](CCC(=O)O)C(=O)N[C@H](C(=O)N[C@@H](CC(C)C)C(=O)N[C@@H](CC(C)C)C(=O)N[C@@H](Cc1ccc(O)cc1)C(=O)N[C@@H](CO)C(=O)N[C@@H](CCC(N)=O)C(=O)N[C@@H](CCC(N)=O)C(=O)N[C@@H](CCC(N)=O)C(=O)N[C@@H](CC(C)C)C(=O)N[C@@H](C)C(=O)N[C@@H](CCCCN)C(=O)N[C@@H](Cc1ccc(O)cc1)C(=O)N[C@@H](Cc1c[nH]c2ccccc12)C(=O)N[C@@H](CCC(=O)O)C(=O)N[C@@H](C)C(=O)N[C@@H](Cc1ccccc1)C(=O)N[C@@H](CC(C)C)C(N)=O)[C@@H](C)O [cSNX1.3]
binding to the EGFR kinase domain [1]: directly bind the EGFR kinase domain | sensitivity (cell viability) [2]: sensitive | weight, behavior, or grooming [3]: No difference in weight, behavior, or grooming was observed | tumor response ([4]; 10 μg/g IV 3X/week, up to 4 weeks): significant tumor regression; also recorded: significant reduction in tumor growth; also recorded: several tumors completely regress | average tumor regression rate ([4]; 10 μg/g IV 3X/week, up to 4 weeks, n = 11 tumors): 4 mm^3/day | average tumor growth rate ([4]; 10 μg/g body weight IV 3X/week, up to 4 weeks, cPTD4 n = 14 tumors, cSNX1.3 n = 11 tumors): -4 mm^3/day | mice that reached tumor burden ([4]; mice of total before end of the study, total tumor volume >2000 mm^3 or individual tumor >2 cm): 1/6 | tumors fully regressed ([4]; number of tumors, calipers and confirmed during necropsy, 10 μg/g IV 3X/week): 3 | tumors that demonstrated growth ([4]; number or proportion of tumors at end of study, the 2 growing cSNX1.3 tumors entered at greater than 500 mm^3): 2 | tumors with no change in tumor volume ([4]; tumors of total, first to last measurement, 10 μg/g IV 3X/week): 2/11 | tumors regressed ([4]; tumors of total, 10 μg/g IV 3X/week, up to 4 weeks): 7/11 | PARP cleavage in remaining tumors [5]: increased PARP cleavage; also recorded: increase in cleaved PARP | inhibition of cell survival compared with Sapitinib [6]: more effective than Sapitinib | observable toxicity [7]: without observable toxicity; also recorded: no observable toxicity; also recorded: lack of observable toxicity in normal tissues | Fat Pad pathology ([8]; mouse 6.13.7 (cSNX1.3)): Mammary adenomatous to lobular (atypical) hyperplasia; In situ mammary adenocarcinoma | Tumor pathology ([8]; mouse 6.13.7 (cSNX1.3)): (R2) Mammary adenocarcinoma (cystic) | Fat Pad pathology ([8]; mouse 6.4.L (cSNX1.3)): Mammary adenomatous to lobular (atypical) hyperplasia; In situ mammary adenocarcinoma; Focal granulomatous mastitis | Tumor pathology ([8]; mouse 6.4.L (cSNX1.3)): (L4) Mammary adenomatous to lobular (atypical) hyperplasia; Adenoma; In situ mammary adenocarcinoma; also recorded: (R4) Mammary adenomatous to lobular (atypical) hyperplasia; Cystic ectasia | Fat Pad pathology ([8]; mouse 6.9.LR (cSNX1.3)): Mammary adenomatous to lobular (atypical) hyperplasia; In situ mammary adenocarcinoma | Tumor pathology ([8]; mouse 6.9.LR (cSNX1.3)): (L4) Mixed malignant tumor (fibrous component) | Fat Pad pathology ([8]; mouse 7.1.9 (cSNX1.3)): Mammary adenomatous to lobular (atypical) hyperplasia; In situ cystic (small) mammary adenocarcinoma | Tumor pathology ([8]; mouse 7.1.9 (cSNX1.3)): (L4) Mammary adenomatous to lobular (atypical) hyperplasia; also recorded: (R4) Mammary adenocarcinoma | sensitivity (cell viability) [9]: sensitive

Reference: publication PMC9935382, “Sorting nexin-dependent therapeutic targeting of oncogenic epidermal growth factor receptor” (Cancer Gene Therapy, 2022)
